Values of other authors as cited in patent publication US10597401B2, “Methods and intermediates for the preparation of omacetaxine and cephalotaxine derivatives thereof” (ALBANY MOLECULAR RESEARCH, INC., priority 2015, dated 2020).

Settings: background statement, no test described

## COC1=C[C@]23CCCN2CCc2cc4c(cc2[C@@H]3[C@@H]1O)OCO4 [cephalotaxine]
  biological activity: biologically inactive
